Where two headings read alike, the source gives them in different places.
Key:
Type in all cases: cell-based
[1] = test system: Balamuthia mandrillaris trophozoites; test: CellTiter-Glo 2.0 trophocidal assay, B. mandrillaris; conditions: for IC50: 72 h, CTG method, duplicate twofold serial dilutions from 10 µM, mean ± SD; for Selectivity Index (A549 IC50/B. mandrillaris IC50): SI = (IC50 A549)/(IC50 Amoeba)
Method: Pathogenic Balamuthia mandrillaris (CDC:[…]; American Type Culture Collection (ATCC) 50209), a GAE isolate, isolated from a pregnant baboon at the San Diego Zoo in 1986 was donated by Luis Fernando […] University, Mexico [43]. Trophozoites were routinely grown axenically in Balamuthia mandrillaris Itson (BMI) media at 37 °C, 5% CO2 in vented 75 cm^2 tissue culture flasks (Olympus, El Cajon, CA, USA), until the cells were 80-90% confluent. For sub-culturing, 0.25% Trypsin-EDTA (Gibco, Gaithersburg, MD, USA) cell detachment reagent was used to detach the cells from the culture flasks. The cells were collected by centrifugation at 4000 rpm at 4 °C. Complete BMI media is produced by the addition of 10% fetal bovine serum (FBS) and 125 μg of penicillin/streptomycin antibiotics. The trophocidal activity of compounds was assessed using the CellTiter-Glo 2.0 luminescent viability assay (Promega, Madison, WI, USA), as previously described. Trophozoites were routinely cultured as described above and only logarithmic trophozoites were used. […] Inhibitors were assessed for percent inhibition using the criteria of ≤33% growth inhibition (no inhibition), 33-67% growth inhibition (moderate inhibition), and ≥67% growth inhibition (strong inhibition). […] We used this process to reduce the number of potential false positives. […] All assays were incubated at each of the parasites' representative growth temperatures, described above, for 72 h. At the 72 h time point, 25 μL of CellTiter-Glo 2.0 reagent was added to all wells of the 96-well plates using the Biomek NX^P automated workstation. The plates were protected from light and contents were mixed using an orbital shaker at 300 rpm at room temperature for 2 min to induce cell lysis. After shaking, the plates were equilibrated at room temperature for 10 min to stabilize the luminescent signal. The adenosine triphosphate (ATP) luminescent signal (relative light units; RLUs) was measured at 490 nm with a SpectraMax I3X plate reader (Molecular Devices, Sunnyvale, CA, USA). Drug inhibitory concentration (IC50) curves were generated using total ATP RLUs, where controls were calculated as the average of replicates using the Levenberg-Marquardt algorithm, using DMSO as the normalization control, as defined in Collaborative Drug Discovery Inc. (CDD) Vault (Burlingame, CA, USA). Values reported are from a minimum of two biological replicates with standard deviations.

[2] = test system: Naegleria fowleri trophozoites; test: CellTiter-Glo 2.0 trophocidal assay, N. fowleri; conditions: for IC50: CTG method, 72 h, duplicate twofold serial dilutions from 10 µM, mean ± SD, read-out: N. fowleri Mean IC50 (µM) ± SD; for Selectivity Index (A549 IC50/N. fowleri IC50): SI = (IC50 A549)/(IC50 Amoeba); for potency against N. fowleri, in words: dose-response, CTG
Method: Pathogenic Naegleria fowleri (ATCC 30215), a clinical isolate obtained from a child in Adelaide, Australia, that died of PAM in 1969 was previously purchased from the American Type Culture Collection (ATCC). Trophozoites were routinely grown axenically at 34 °C in Nelson’s complete medium (NCM) in non-vented 75 cm^2 tissue culture flasks (Olympus, El Cajon, CA, USA), until the cells were 80–90% confluent. For sub-culturing, cells were placed on ice to detach the cells from the culture flasks. The cells were collected by centrifugation at 4000 rpm at 4 °C. Complete NCM media is produced by the addition of 10% FBS and 125 μg of penicillin/streptomycin antibiotics.
The trophocidal activity of compounds was assessed using the CellTiter-Glo 2.0 luminescent viability assay (Promega, Madison, WI, USA), as previously described. Trophozoites were routinely cultured as described above and only logarithmic trophozoites were used. In brief, B. mandrillaris, N. fowleri, or A. castellanii trophozoites cultured in their corresponding media were seeded at 16,000, 3000, or 1440 cells/well into white 96-well plates (Costar 3370), respectively. Initially all compounds were assessed in a single-point drug screen at 10 and 1 μM, as previously described. […] Control wells were supplemented with 0.1% (10 μM screening plate) or 0.01% (1 μM screening plate) DMSO, as the negative controls, or 12.5 μM of chlorhexidine, as the positive control. Following the single-point assays at 10 and 1 µM, we prioritized compounds for progression to IC50 determinations. […] We used this process to reduce the number of potential false positives. Drugs were cherry-picked, dissolved in the media specific to each parasite, and assessed in twofold serial dilutions from the highest concentration of 10 μM. All assays were incubated at each of the parasites’ representative growth temperatures, described above, for 72 h. At the 72 h time point, 25 μL of CellTiter-Glo 2.0 reagent was added to all wells of the 96-well plates using the Biomek NX^P automated workstation. The plates were protected from light and contents were mixed using an orbital shaker at 300 rpm at room temperature for 2 min to induce cell lysis. After shaking, the plates were equilibrated at room temperature for 10 min to stabilize the luminescent signal. The adenosine triphosphate (ATP) luminescent signal (relative light units; RLUs) was measured at 490 nm with a SpectraMax I3X plate reader (Molecular Devices, Sunnyvale, CA, USA). Drug inhibitory concentration (IC50) curves were generated using total ATP RLUs, where controls were calculated as the average of replicates using the Levenberg–Marquardt algorithm, using DMSO as the normalization control, as defined in Collaborative Drug Discovery Inc. (CDD) Vault (Burlingame, CA, USA). Values reported are from a minimum of two biological replicates with standard deviations.

[3] = test system: A549 human lung carcinoma cells; test: MTS cytotoxicity counter-screen of reconfirmed hits; conditions: Homo sapiens
Method: Cytotoxicity of the reconfirmed hits was determined by using the CellTiter 96® AQueous One Solution Cell Proliferation Assay (Promega, Madison, WI) on A549 human lung carcinoma cells. A549 cells were seeded at a concentration of 1.6 × 10^4 cells/mL in 96-well tissue culture plates (Corning, NY, USA), in the presence of serially diluted active hits against B. mandrillaris, N. fowleri, or A. castellanii. Positive control wells contained cells and media; negative control wells contained 0.1% DMSO. Cells were grown in F12K medium supplemented with 10% FBS and 1% gentamycin (all supplied from Fisher Scientific, Atlanta, GA, USA). The inhibitor concentration started at 10 µM and was diluted in doubling dilutions to assess cytotoxicity in comparison to the respective free-living amoeba. Total volume of each well was 100 µL and plates were incubated at 37 °C, 5% CO2 for 72 h. Next, 4 h before the time-point, 20 µL of MTS (Promega, Madison, WI, USA) was added to each well. Inhibition of A549 growth was assessed at the 72 h time-point measuring the optical density (OD) values at 490 nm using a SpectraMax I3X plate reader (Molecular Devices, Sunnyvale, CA, USA). Curve fitting using non-linear regression was carried out using the average of replicates and the Levenberg–Marquardt algorithm, using DMSO as the normalization control, as defined in CDD Vault (Burlingame, CA, USA).

[4] = A549, MTS assay, 72 h, doubling dilutions from 10 µM, read-out: A549 Mean IC50

| Structure (SMILES) | IC50 ([1]; Balamuthia mandrillaris) | IC50 ([2]; listed as butenafine) | IC50 [2] | Selectivity Index (A549 IC50/N. fowleri IC50) [2] | IC50 [3, 4] | IC50 [1] | Selectivity Index (A549 IC50/B. mandrillaris IC50) [1] | IC50 ([2]; Naegleria fowleri) | potency against B. mandrillaris, in words ([1]; dose-response, CTG) | potency against N. fowleri, in words [2] | Selectivity Index (A549 IC50/N. fowleri IC50) ([2]; listed as ravuconazole) | Selectivity Index (A549 IC50/N. fowleri IC50) ([2]; listed as terbinafine) | IC50 ([3]; A549, 72 h, read-out: A549 Mean IC50 (µM)) |
| --- | --- | --- | --- | --- | --- | --- | --- | --- | --- | --- | --- | --- | --- |
| CN(Cc1ccc(C(C)(C)C)cc1)Cc1cccc2ccccc12 [Butenafine] | > 10 µM | ≤ 10 µM | 1.05 ± 0.35 µM | ≥9.52 | > 10 µM |  |  |  |  |  |  |  |  |
| CC(=O)Oc1ccccc1C(=O)Nc1ncc([N+](=O)[O-])s1 [Nitazoxanide] | ≤ 10 µM |  |  | ≥2.78 | > 10 µM | 8.6 ± 1.98 µM | ≥1.16 | 3.6 µM |  |  |  |  |  |
| Cc1[nH]c2ccccc2c1CCNCc1ccc(/C=C/C(=O)NO)cc1 [Panobinostat] | 0.39 ± 0.04 µM |  |  | <1.44 | < 0.31 µM |  | <0.79 | 0.22 ± 0.06 µM | nanomolar potency | nanomolar potency |  |  |  |
| C[C@@H](c1nc(-c2ccc(C#N)cc2)cs1)[C@](O)(Cn1cncn1)c1ccc(F)cc1F [Ravuconazole] | > 10 µM |  |  |  | > 10 µM |  |  | 0.05 ± 0.02 µM |  | nanomolar potency | ≥ 10 |  |  |
| CN(C/C=C/C#CC(C)(C)C)Cc1cccc2ccccc12 [Terbinafine] | > 10 µM |  |  | ≥12.7 |  |  |  | 0.79 ± 0.7 µM |  | nanomolar potency |  | ≥ 10 | > 10 µM |

— paper PMC7344389, “Discovery of Anti-Amoebic Inhibitors from Screening the MMV Pandemic Response Box on Balamuthia mandrillaris, Naegleria fowleri, and Acanthamoeba castellanii” (Pathogens, 2020)
